Results reported in article PMC6121244, “Differences in Functional Expression of Connexin43 and NaV1.5 by Pan- and Class-Selective Histone Deacetylase Inhibition in Heart” (International Journal of Molecular Sciences, 2018).
Read-outs that look alike come from different tables or passages of the source.

Columns and labels:
HDAC4 = tested on: HDAC4; set-up: method as in PMID 17868033; conditions: >100,000 = incomplete inhibition at 100 μM; cited from earlier work
[1] = tested on: HeLa nuclear extract HDAC activity; set-up: method as in PMID 17455259; conditions: incomplete inhibition; cited from earlier work
IK,to and IK,ss in NMVMs = test: Transient and steady state outward K+ currents, whole cell patch clamp
HDAC9 = tested on: HDAC9; set-up: method as in PMID 17868033; conditions: >100,000 = incomplete inhibition at 100 μM; cited from earlier work
[2] = tested on: total HDAC activity in cultured neonatal mouse ventricular cardiomyocytes; test: Fluor de Lys total HDAC activity assay in cultured ventricular cardiomyocytes; format: cell-based; conditions: NMVMs, 18–24 h treatment; for C1, decay constant of first exponential component of HDAC inhibition curve / C2, decay constant of second exponential component of HDAC inhibition curve: double exponential fit
Experimental: Neonatal mice born from an inbred C57BL/6 mouse colony were anesthetized using isoflurane and the hearts were excised in accordance with procedures approved by the SUNY Upstate Medical University Institutional Animal Care and Use Committee (IACUC) # 263 on 15 March 2017. The excised hearts were separated into atria and ventricles and exposed to collagenase solution for digestion. The dissociated cells were pre-plated for 30 min to reduce fibroblast content by differential adhesion and the supernatant was collected, centrifuged and re-suspended in 1 mL/heart of M199/10% FBS culture media. The primary cells were plated into 96-well plates for HDAC activity assays, 35 mm culture dishes for patch clamp electrophysiology, or 60 mm culture dishes and homogenized after 3 days for Western blots.
Aliquots of 2 × 10^5 ventricular myocytes per well (96-well plate) were grown in 200 μL of 200 μM bromodeoxyuridine (BrDU)/M199, exchanged daily. Cell densities were counted with a hemocytometer and seeded into the wells. Wells were incubated with 2000 pmoles of the acetylated Fluor-de-Lys® substrate for 8 h during HDAC inhibition. […]

[3] = tested on: cardiac sodium current (INa) in NMVMs, primarily NaV1.5; test: Cardiac sodium current (INa) density and Vm-dependent gNa activation/inactivation, whole cell patch clamp; format: cell-based, mouse; conditions: 18–24 h
Excerpt: Since both the activation and inactivation of INa are dependent on the membrane potential (Vm), we calculated the normalized Na^+ conductance (gNa) by dividing the average peak INa by the difference between Vm and the reversal potential (Erev) for INa, and then divided the gNa value for each Vm by the maximum gNa value for each experiment. The gNa–Vm curves were fit with a Boltzmann function gNa= gNamax+ (gNa− gNamax)/[1+exp((Vm− V1/2)/dVm)] using Origin 8.6. […] Final DMSO levels were <0.005% (vol/vol).

HDAC8 [4] = tested on: HDAC8; set-up: method as in PMID 17455259; conditions: cited from earlier work
HDAC1 [5] = tested on: HDAC1
[6] = tested on: Cx43 protein expression in NMVMs; test: Western blot of Cx43 protein level; format: cell-based, mouse; conditions: 24 h
[7] = tested on: ventricular gap junction conductance (gj), Cx43-mediated; test: Gap junction conductance (gj), dual whole cell patch clamp on NMVM cell pairs; format: cell-based, mouse
Experimental: Final DMSO levels were <0.005% (vol/vol).
Gap junction currents (Ij) were recorded in the dual whole cell configuration according to previously published methods. Upon establishing a dual whole cell patch, Ij was recorded using a 30 s, 20 mV trans-junctional voltage protocol. All dual whole cell current recordings were low-pass filtered at 500 Hz and digitized at 2 KHz using pClamp 8.2 and graphical analysis performed using Origin 7.5 or 8.6 software as previously described.

late INa in NMVMs = test: Late INa, whole cell patch clamp; format: cell-based, mouse
Excerpt: Increases in late or persistent INa have been linked to cardiac arrhythmias and heart failure. […] . Subsequently, we modified a voltage clamp ramp protocol designed to generate late INa I–V relationships. […] .

HDAC8 [8] = tested on: HDAC8; set-up: method as in PMID 17868033; conditions: >100,000 = incomplete inhibition at 100 μM; cited from earlier work
HDAC1 [9] = conditions: read-out: IC50 HDAC1, cited from earlier work
[10] = tested on: acetyl-α-tubulin and acetyl-histone 3; test: Western blot of acetylation markers; conditions: 1 μM MS-275, 24 h
[11] = tested on: NaV1.5 protein expression in NMVMs; test: Western blot of NaV1.5 protein level; format: cell-based, mouse; conditions: 24 h
[12] = tested on: total HDAC activity in cultured neonatal mouse ventricular cardiomyocytes; conditions: NMVMs, cited from earlier work; for C1, decay constant of first exponential component of HDAC inhibition curve / C2, decay constant of second exponential component of HDAC inhibition curve: double exponential fit
[13] = tested on: cardiac sodium current (INa) in NMVMs, primarily NaV1.5; set-up: method as in PMID 27638876; conditions: previous experiments ref 13; cited from earlier work
HDAC6 = conditions: cited from earlier work
HDAC7 [14] = target: HDAC7; set-up: method as in PMID 20139990; conditions: cited from earlier work
HDAC5 = target: HDAC5; set-up: method as in PMID 20139990; conditions: cited from earlier work
HDAC1 [15] = target: HDAC1; set-up: method as in PMID 20139990; conditions: cited from earlier work
HDAC2 = target: HDAC2; set-up: method as in PMID 20139990; conditions: cited from earlier work
HDAC3 = tested on: HDAC3; set-up: method as in PMID 17868033; conditions: >100,000 = incomplete inhibition at 100 μM; cited from earlier work
HDAC1 [16] = tested on: HDAC1; set-up: method as in PMID 17868033; conditions: >100,000 = incomplete inhibition at 100 μM; cited from earlier work
HDAC7 [17] = tested on: HDAC7; set-up: method as in PMID 17868033; conditions: >100,000 = incomplete inhibition at 100 μM; cited from earlier work
[18] = read-out: IC50(2), low affinity site, total HDAC activity, IC50 = 0.693·C2
[19] = adjusted values from published data ref 14
[20] = adjusted values from published data ref 13
[21] = 25, 100, 500, 2500 nM panobinostat, p < 0.05

Nc1ccccc1NC(=O)c1ccc(CNC(=O)OCc2cccnc2)cc1 [Entinostat, entinostat]
IC50 [1]: 11 µM
transient outward and steady state K+ currents (IK,to and IK,ss in NMVMs; 1 μM MS275, 24 h): no si gni ficant chang es
C1, decay constant of first exponential component of HDAC inhibition curve [2]: 629 ± 166 nM
C2, decay constant of second exponential component of HDAC inhibition curve [2]: 12,926 ± 3655 nM
IC50 ([2]; read-out: IC50(1), high affinity site, total HDAC activity, IC50 = 0.693·C1): 0.436 ± 0.115 µM
IC50 [2, 18]: 8.96 ± 2.53 µM
effect on peak Na+ current density ([3]; 1 μM entinostat): no significant effect
preferential inhibition of HDAC1 over other HDACs (HDAC1 [5]): 10–100 fold
Cx43 protein level ([6]; 1 μM entinostat): no significant changes
effect on ventricular gj ([7]; 5 μM entinostat, 18–24 h): significant reduction in gj
effect on late INa current density (late INa in NMVMs; 1 μM entinostat 18–24 h, Vm ramp): no increase in late INa
Ac-H3 and Ac-α-tubulin signals [10]: only increased the Ac-H3 signal
NaV1.5 protein level ([11]; 1 μM entinostat): no significant changes

C/C=C1\NC(=O)[C@H]2CSSCC/C=C/[C@H](CC(=O)N[C@H](C(C)C)C(=O)N2)OC(=O)[C@H](C(C)C)NC1=O [FK228, romidepsin]
C1, decay constant of first exponential component of HDAC inhibition curve [12, 19]: 7.9 ± 0.9 nM
C2, decay constant of second exponential component of HDAC inhibition curve [12, 19]: 2524 ± 678 nM
IC50 ([12]; adjusted values from published data ref 14, read-out: IC50(1), high affinity site, total HDAC activity): 0.0055 ± 0.0006 µM
IC50 ([12]; adjusted values from published data ref 14, read-out: IC50(2), low affinity site, total HDAC activity): 1.75 ± 0.47 µM
positive shift in half activation voltage (V½) [13]: +2 to +8 mV
shift in Vm-dependent gNa inactivation curve [13]: no shift

CC(/C=C/C(=O)NO)=C\[C@@H](C)C(=O)c1ccc(N(C)C)cc1 [TSA, Trichostatin A]
C1, decay constant of first exponential component of HDAC inhibition curve [12, 20]: 10.6 ± 1.3 nM
C2, decay constant of second exponential component of HDAC inhibition curve [12, 20]: 258 ± 76 nM
IC50 ([12]; adjusted values from published data ref 13, read-out: IC50(1), high affinity site, total HDAC activity): 0.0073 ± 0.0009 µM
IC50 ([12]; adjusted values from published data ref 13, read-out: IC50(2), low affinity site, total HDAC activity): 0.179 ± 0.053 µM
positive shift in half activation voltage (V½) [13]: +2 to +8 mV
shift in Vm-dependent gNa inactivation curve [13]: no shift

O=C(CCCCCCC(=O)Nc1ccccc1)NO [VOR, suberoylanilide hydroxamic acid]
C1, decay constant of first exponential component of HDAC inhibition curve [12, 20]: 140 ± 30 nM
C2, decay constant of second exponential component of HDAC inhibition curve [12, 20]: 1086 ± 312 nM

CCCC(=O)[O-].[Na+] [NaB, sodium butyrate]
increase in gj ([7]; 5 mM NaB alone): 26%
effect on gj ([7]; increasing concentrations of NaB): non-significantly increased gj in a concentration-dependent manner
activity against the class IIb HDAC6 (HDAC6): no activity

O=C(CCCCCCC(=O)Nc1ccc([C@H]2O[C@@H](CSc3nc(-c4ccccc4)c(-c4ccccc4)o3)C[C@@H](c3ccc(CO)cc3)O2)cc1)NO [Tubacin, tubacin]
Ki (HDAC7 [14]): 8.5 ± 1.5 µM
Ki (HDAC5): 1.5 ± 0.25 µM
increase in gj ([7]; 10 μM tubacin alone): 9%
effect on gj ([7]; 20 μM tubacin, highest tested dose): slight decrease
effect on gj ([7]; increasing concentrations of tubacin): non-significant increase and then decrease in gj with increasing concentration
Ki (HDAC1 [15]): 0.028 ± 0.004 µM
Ki (HDAC2): 0.042 ± 0.0035 µM

Cc1[nH]c2ccccc2c1CCNCc1ccc(/C=C/C(=O)NO)cc1 [Panobinostat, panobinostat]
transient outward and steady state K+ currents (IK,to and IK,ss in NMVMs; 100 nM, 24 h): No signifi cant changes
C1, decay constant of first exponential component of HDAC inhibition curve [2]: 57.4 ± 22.2 nM
C2, decay constant of second exponential component of HDAC inhibition curve [2]: 2959 ± 838 nM
IC50 ([2]; IC50 = 0.693·C1, listed as LBH589, read-out: IC50(1), high affinity site, total HDAC activity): 0.0398 ± 0.0154 µM
IC50 ([2]; IC50 = 0.693·C1, read-out: IC50(1), high affinity site, total HDAC activity): ~0.04 µM
IC50 [2, 18]: ~2 µM
IC50 ([2]; read-out: IC50(2), low affinity site, total HDAC activity, IC50 = 0.693·C2, listed as LBH589): 2.05 ± 0.581 µM
effect on peak cardiac Na+ current density ([3]; 100 or 500 nM panobinostat): decreased the cardiac sodium current density in a dose-dependent manner
Cx43 protein level [6, 21]: concentration-dependent decrease
amplitude of exponential fit of decline in gj ([7]; 18–24 h, exponential fit): 48.5
effect on ventricular gj ([7]; 100, 500 or 1000 nM panobinostat, 18–24 h): significant dose-dependent decrease
effect on late INa (late INa in NMVMs; 100 or 500 nM panobinostat overnight, average current 100 to 150 msec): no difference in late INa
NaV1.5 protein level [11, 21]: concentration-dependent decrease

CCCC(CCC)C(=O)O [VPA, valproic acid]
IC50 (HDAC9): > 100 µM
IC50 (HDAC3): 3070 µM
IC50 (HDAC1 [16]): 1580 µM
IC50 (HDAC8 [8]): 7440 µM
IC50 (HDAC7 [17]): > 100 µM
